Measured values: ChEMBL document CHEMBL1201862, “PubChem BioAssay data set” (2004)
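These data come from cells grown in 96-well plates and exposed to compound for 48 hours at five concentrations. GI50 marks 50% less growth.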 The source made the active and inactive calls. No stated cut-off is given here; in the data, active = GI50 up to about 1.1 µM and inactive = higher.

Experiments:
Assay in all cases: growth of human tumour cells (NCI), 48 h
HCT-15 = system: HCT-15
EKVX = system: EKVX
SF-268 = system: SF-268
SNB-19 = system: SNB-19
SNB-75 = system: SNB-75
Malme-3M = system: Malme-3M
NCI-H522 = system: NCI-H522
UACC-62 = system: UACC-62
SK-MEL-2 = system: SK-MEL-2
SW-620 = system: SW-620
HL-60 = system: HL-60
LOX IMVI = system: LOX IMVI
A549 = system: A549
MOLT-4 = system: MOLT-4
UO-31 = system: UO-31
IGROV-1 = system: IGROV-1
786-0 = system: 786-0
KM12 = system: KM12
NCI-H23 = system: NCI-H23
HOP-62 = system: HOP-62

| SMILES | GI50 (HCT-15) [µM] | GI50 (EKVX) | GI50 (SF-268) | GI50 (SNB-19) | GI50 (SNB-75) | GI50 (Malme-3M) | GI50 (NCI-H522) | GI50 (UACC-62) | GI50 (SK-MEL-2) | GI50 (SW-620) | GI50 (HL-60) | GI50 (LOX IMVI) | GI50 (A549) | GI50 (MOLT-4) | GI50 (UO-31) | GI50 (IGROV-1) | GI50 (786-0) | GI50 (KM12) | GI50 (NCI-H23) | GI50 (HOP-62) |
| --- | --- | --- | --- | --- | --- | --- | --- | --- | --- | --- | --- | --- | --- | --- | --- | --- | --- | --- | --- | --- |
| N#Cc1c(N)c2c(c(-c3ccccc3)c1-c1ccccc1)C(=O)N(NC(=S)Nc1ccccc1)C2=O | 71.8 | > 100 µM (inactive) | > 100 µM (inactive) | > 100 µM (inactive) | 65.2 µM (inactive) | > 100 µM (inactive) | 57.3 µM (inactive) | 73.8 µM (inactive) | > 100 µM (inactive) | > 100 µM (inactive) | 37.9 µM (inactive) | 90.2 µM (inactive) | 64.1 µM (inactive) | 46.8 µM (inactive) | 34.1 µM (inactive) | 43 µM (inactive) | > 100 µM (inactive) | 75.7 µM (inactive) |  |  |
| O=C1C[C@@H](c2ccc(O)cc2)[C@@]2(O1)C(=O)O[C@H]([C@@H](O)CO)[C@@H]2O | > 100 | > 100 µM (inactive) | > 100 µM (inactive) | > 100 µM (inactive) | > 100 µM (inactive) | > 100 µM (inactive) | > 100 µM (inactive) | > 100 µM (inactive) | > 100 µM (inactive) | > 100 µM (inactive) | > 100 µM (inactive) | > 100 µM (inactive) | > 100 µM (inactive) | > 100 µM (inactive) | > 100 µM (inactive) | > 100 µM (inactive) | > 100 µM (inactive) | > 100 µM (inactive) | > 100 µM (inactive) |  |
| CN1NC(c2ccccc2)=C(C#N)C(=O)CC1c1ccccc1Cl (configuration not stated) | 63.4 |  | > 100 µM (inactive) | > 100 µM (inactive) | 86.3 µM (inactive) | > 100 µM (inactive) | 65.2 µM (inactive) |  | > 100 µM (inactive) | > 100 µM (inactive) | > 100 µM (inactive) | > 100 µM (inactive) | > 100 µM (inactive) | > 100 µM (inactive) |  |  | > 100 µM (inactive) | > 100 µM (inactive) | > 100 µM (inactive) | 25.3 µM (inactive) |
| O=Cc1ccc2c(c1I)OCO2 | > 100 | > 100 µM (inactive) |  | > 100 µM (inactive) | > 100 µM (inactive) | > 100 µM (inactive) | > 100 µM (inactive) | > 100 µM (inactive) | > 100 µM (inactive) | > 100 µM (inactive) | > 100 µM (inactive) | > 100 µM (inactive) | > 100 µM (inactive) | > 100 µM (inactive) | > 100 µM (inactive) | > 100 µM (inactive) | > 100 µM (inactive) | > 100 µM (inactive) | > 100 µM (inactive) | > 100 µM (inactive) |
| COc1ccc(C2C3=CONC3CC3CCCCC32)cc1 (configuration not stated) |  |  | 79.4 µM (inactive) | 92.7 µM (inactive) | > 100 µM (inactive) | 43.3 µM (inactive) | 29.6 µM (inactive) | 70.1 µM (inactive) | 33.8 µM (inactive) | > 100 µM (inactive) | 29.6 µM (inactive) | 69.7 µM (inactive) | 33.8 µM (inactive) | 18.9 µM (inactive) | 38 µM (inactive) | > 100 µM (inactive) | 46.7 µM (inactive) |  | 35.2 µM (inactive) | > 100 µM (inactive) |
| COC(=O)c1cnn2c1n[n+]([O-])c1ccccc12 |  | > 100 µM (inactive) | > 100 µM (inactive) |  | > 100 µM (inactive) | > 100 µM (inactive) | > 100 µM (inactive) | > 100 µM (inactive) | > 100 µM (inactive) | > 100 µM (inactive) | 68.5 µM (inactive) | > 100 µM (inactive) | > 100 µM (inactive) | > 100 µM (inactive) | 37.4 µM (inactive) | > 100 µM (inactive) | > 100 µM (inactive) | > 100 µM (inactive) | 57 µM (inactive) | > 100 µM (inactive) |
| O=c1cc(/C=C/c2ccc(O)c(O)c2)oc(/C=C/c2ccc(O)c(O)c2)c1 | 5.68 | 6.53 µM (inactive) | 2.17 µM (inactive) | 3.82 µM (inactive) | 4.41 µM (inactive) | 5.06 µM (inactive) | 1.24 µM (inactive) | 2.37 µM (inactive) | 2.65 µM (inactive) | 4.83 µM (inactive) |  | 3.61 µM (inactive) | 13.4 µM (inactive) | 1.83 µM (inactive) | 4.66 µM (inactive) | 4.17 µM (inactive) | 5.75 µM (inactive) | 4.37 µM (inactive) | 4.57 µM (inactive) | 7.53 µM (inactive) |
| Nc1c(-c2cn(Cc3ccccc3)c3ccccc23)[n+]([O-])c2ccccc2[n+]1[O-] | 27.2 | 32.6 µM (inactive) | 21.5 µM (inactive) | 36.6 µM (inactive) | 16.4 µM (inactive) | 29.7 µM (inactive) | 13.2 µM (inactive) | 23.6 µM (inactive) | 23.1 µM (inactive) | 51.4 µM (inactive) | 9.46 µM (inactive) | 24.2 µM (inactive) | 30.8 µM (inactive) | 16.8 µM (inactive) | 10.2 µM (inactive) | 21.7 µM (inactive) | 30.7 µM (inactive) | 28.8 µM (inactive) | 22 µM (inactive) |  |
| O=C(Nc1nnc(S)[nH]1)C(=O)C(C(=O)c1ccc2ccccc2c1)C1OC(=O)c2ccccc21 (configuration not stated) | 27.9 | 39.7 µM (inactive) | 16.6 µM (inactive) | 7.64 µM (inactive) | 13.8 µM (inactive) | 31 µM (inactive) | 17.6 µM (inactive) | 15.6 µM (inactive) | 23 µM (inactive) | 28.9 µM (inactive) |  | 17.8 µM (inactive) | 37.5 µM (inactive) | 3.78 µM (inactive) | 15.7 µM (inactive) | 20.4 µM (inactive) | 14.9 µM (inactive) | 26.8 µM (inactive) | 17.1 µM (inactive) | 14.7 µM (inactive) |
| Cc1ccccc1S(=O)(=O)OC1NS(=O)(=O)c2ccccc21 (configuration not stated) | > 100 | > 100 µM (inactive) | > 100 µM (inactive) | > 100 µM (inactive) | > 100 µM (inactive) | > 100 µM (inactive) | > 100 µM (inactive) | > 100 µM (inactive) | > 100 µM (inactive) | > 100 µM (inactive) |  | > 100 µM (inactive) | > 100 µM (inactive) | > 100 µM (inactive) | > 100 µM (inactive) | > 100 µM (inactive) | > 100 µM (inactive) | > 100 µM (inactive) | > 100 µM (inactive) | > 100 µM (inactive) |
| CSCCCNC(=O)c1csc(-c2csc(CCNC(=O)CNC(=O)CNC(=O)CNC(=O)OC(C)(C)C)n2)n1 | > 100 | > 100 µM (inactive) | > 100 µM (inactive) | > 100 µM (inactive) | > 100 µM (inactive) | > 100 µM (inactive) | > 100 µM (inactive) | > 100 µM (inactive) | > 100 µM (inactive) | > 100 µM (inactive) |  | > 100 µM (inactive) | > 100 µM (inactive) | > 100 µM (inactive) | > 100 µM (inactive) | > 100 µM (inactive) | > 100 µM (inactive) | > 100 µM (inactive) | > 100 µM (inactive) | > 100 µM (inactive) |
